Results as given in US9550763B2, “Heterocyclic ring and carbocyclic derivative” (Shionogi & Co., Ltd., priority 2012, dated 2017).

target: human P2X3 receptor (Homo sapiens (Human), UniProt P56373); assay: Evaluation of human P2X3 receptor inhibitory activity (Test Example 1-1, FDSS 3000, 96-well, 50 nM ATP); type: cell-based; conditions: human P2X3 receptor in C6BU-1 cells; Test Example 1-1 (compounds I-001 to I-300)
In short: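 C6BU-1 cells stably expressing human P2X3, loaded with 4 μM Fluo-3-AM (pH 7.5), preincubated 5 min with compound before 50 nM ATP challenge; fluorescence followed 4 min on FDSS 3000. IC50 derived from peak/baseline fluorescence ratio, no-compound as 0% and buffer-instead-of-ATP as 100% inhibition.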

Sequence of human P2X3 receptor (P56373 whole entry): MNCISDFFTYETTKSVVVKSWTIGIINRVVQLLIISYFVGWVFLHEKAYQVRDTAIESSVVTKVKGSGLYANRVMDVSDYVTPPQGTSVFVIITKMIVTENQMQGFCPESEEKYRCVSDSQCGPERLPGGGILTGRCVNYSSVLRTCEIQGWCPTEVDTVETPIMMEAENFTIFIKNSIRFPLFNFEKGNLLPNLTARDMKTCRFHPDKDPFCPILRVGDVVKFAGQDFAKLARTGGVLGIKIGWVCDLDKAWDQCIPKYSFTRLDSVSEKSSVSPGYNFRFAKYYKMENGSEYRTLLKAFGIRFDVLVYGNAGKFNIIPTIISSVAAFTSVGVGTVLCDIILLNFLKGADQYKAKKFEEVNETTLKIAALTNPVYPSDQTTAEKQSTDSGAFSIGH

SMILES	IC50 [µM]
CCn1c(=O)cc(Nc2ccc(Oc3ncc(C(=O)O)s3)cc2)n(Cc2ccc(Cl)cc2)c1=O [Compound I-013]	0.002
CCc1c[nH]/c(=N\c2ccc(Oc3cccc(C(=O)O)n3)c(C)c2)n(Cc2ccc(Cl)cc2)c1=O [Compound I-148]	0.059
CCc1oc2ccc(Nc3ncc(NC(=O)C4CCOCC4)c(=O)n3CC3CCCCC3)cc2c1C [Compound I-080]	0.02
CC(c1ccc(Cl)cc1)n1cc(C(=O)NC2CCOCC2)c(=O)nc1Nc1ccc(Oc2cccc(F)n2)cc1 (centres unmarked) [Compound I-270]	0.175
Cc1nc(Nc2cc(=O)n(C[C@H](C)C(=O)O)c(=O)n2Cc2ccc(Cl)cc2)ccc1Oc1cccc(F)c1 [Compound I-245]	0.058
O=C(NC1CCOCC1)c1cn(Cc2ccc(F)cc2)c(Nc2ccc(Oc3cccc(F)n3)cc2)nc1=O [Compound I-281]	0.041
CN(C(=O)C1CCOCC1)c1c[nH]/c(=N\c2ccc(Oc3ccon3)cc2)n(Cc2ccc(Cl)cc2)c1=O [Compound I-109]	0.034
CCC(=O)Nc1c[nH]/c(=N\c2ccc(Oc3cnc(C(=O)O)cn3)cc2)n(Cc2ccc(Cl)cc2)c1=O [Compound I-094]	0.01
CN(C)C(=O)c1c[nH]/c(=N\c2ccc(Oc3cccc(C(N)=O)n3)cc2)n(Cc2ccc(Cl)cc2)c1=O [Compound I-220]	0.178
NC(=O)c1cccc(Oc2ccc(Nc3ncc(NC(=O)C4CCOCC4)c(=O)n3Cc3ccc(Cl)cc3)cc2)n1 [Compound I-038]	0.002
CN/C(=N\C#N)Nc1c[nH]/c(=N\c2ccc(Oc3ccon3)cc2)n(Cc2ccc(Cl)cc2)c1=O [Compound I-243]	0.557
O=C(Nc1c[nH]/c(=N\c2ccc(Oc3ccon3)cc2)n(Cc2ccc(Cl)cc2)c1=O)C1CC(F)(F)C1 [Compound I-211]	0.015
CCOC(=O)c1cccc(Oc2ccc(Nc3cc(=O)n(CC)c(=O)n3Cc3ccc(Cl)cc3)nc2)c1 [Compound I-044]	0.103
Cc1cc(Nc2ncc(NC(=O)C3CCOCC3)c(=O)n2Cc2ccc(Cl)cc2)ccc1Oc1cccc(F)n1 [Compound I-135]	0.002
CCC(=O)Nc1c[nH]/c(=N\c2ccc(Oc3cncc(C)n3)cc2)n(Cc2ccc(Cl)cc2)c1=O [Compound I-145]	0.04
CN(C)C(=O)c1c[nH]/c(=N\c2ccc(Oc3cccc(F)n3)cc2)n(Cc2ccc(Cl)cc2)c1=O [Compound I-195]	0.07
CCc1oc2ccc(/N=c3\[nH]cc(NC(=O)C4CCOCC4)c(=O)n3Cc3ccc(Cl)cn3)cc2c1C [Compound I-262]	0.098
O=C(NC1CCOCC1)c1cn(Cc2ccccc2)c(Nc2ccc(Oc3cccc(F)n3)cc2)nc1=O [Compound I-280]	0.139
O=C(NC1CCOCC1)c1c[nH]/c(=N\c2ccc(Oc3cccc(F)n3)cc2)n(Cc2ccc(Cl)cc2)c1=O [Compound I-042]	0.014
O=C(Nc1c[nH]/c(=N\c2ccc(Oc3ccon3)cc2)n(Cc2ccc(Cl)cc2)c1=O)c1ccon1 [Compound I-226]	0.208
CCC(=O)N(CC)c1c[nH]/c(=N\c2ccc(Oc3cccc(C#N)n3)cc2)n(Cc2ccc(Cl)cc2)c1=O [Compound I-189]	0.012
CC(=O)N(C)c1c[nH]/c(=N\c2ccc(Oc3cccc(C(=O)O)n3)cc2)n(Cc2ccc(Cl)cc2)c1=O [Compound I-210]	0.017
O=C(Nc1c[nH]/c(=N\c2ccc(Oc3ccon3)cc2)n(Cc2ccc(Cl)cc2)c1=O)c1ccoc1 [Compound I-267]	0.045
C[C@@H](Cn1c(=O)cc(Nc2ccc(Oc3cccc(F)n3)cc2)n(Cc2ccc(Cl)cc2)c1=O)C(=O)O [Compound I-120]	0.006

SMILES	IC50 [µM]
C[C@@H](Cn1c(=O)cc(Nc2ccc(Oc3cccc(C#N)n3)c(F)c2)n(Cc2ccc(Cl)cc2)c1=O)C(=O)O [Compound I-127]	0.003
Cc1nocc1C(=O)Nc1c[nH]/c(=N\c2ccc(Oc3ccon3)cc2)n(Cc2ccc(Cl)cc2)c1=O [Compound I-264]	0.015
N#Cc1cccc(Oc2ccc(Nc3cc(=O)[nH]c(=O)n3Cc3ccc(Cl)cc3)cc2)n1 [Compound I-064]	0.036
Cc1cncc(Oc2ccc(Nc3ncc(NC(=O)C4CCOCC4)c(=O)n3Cc3ccc(Cl)cc3)cc2)n1 [Compound I-136]	0.002
O=C(Nc1cnc(Nc2ccc(Oc3nccs3)cc2)n(Cc2ccc(Cl)cc2)c1=O)C1CCOCC1 [Compound I-131]	0.002
CCc1oc2ccc(/N=c3\[nH]cc(C(C)=O)c(=O)n3Cc3ccc(Cl)cc3)cc2c1C [Compound I-073]	0.14
Cc1cnc(-c2c[nH]/c(=N\c3ccc(Oc4cccc(C(=O)O)n4)cc3)n(Cc3ccc(Cl)cc3)c2=O)o1 [Compound I-290, 1-(4-chlorobenzyl)-2-[4-(6-hydroxycarbonyl-2-pyridyloxy)phenylamino]-5-(5-methyloxazol-2-yl)pyrimidin-6(1H)-one]	0.004
CCC(=O)Nc1c[nH]/c(=N\c2ccc(Oc3ccc(C)nn3)cc2)n(Cc2ccc(Cl)cc2)c1=O [Compound I-146]	0.026
Cc1oncc1C(=O)Nc1c[nH]/c(=N\c2ccc(Oc3ccon3)cc2)n(Cc2ccc(Cl)cc2)c1=O [Compound I-269]	0.016
O=C(Nc1c[nH]/c(=N\c2ccc(Oc3ccc(F)cn3)cc2)n(Cc2ccc(Cl)cc2)c1=O)C1COC1 [Compound I-214]	0.013
CCC(=O)Nc1c[nH]/c(=N\c2ccc(Oc3ccc(C(N)=O)nc3)cc2)n(Cc2ccc(Cl)cc2)c1=O [Compound I-095]	0.008
N#Cc1ccc(Oc2ccc(Nc3nc(=O)c(C(=O)NC4CCOCC4)cn3Cc3ccc(Cl)cc3)cc2)cn1 [Compound I-229]	0.007
NC(=O)c1c[nH]/c(=N\c2ccc(Oc3ncccc3F)cc2)n(Cc2ccc(Cl)cc2)c1=O [Compound I-110]	0.027
CCC(=O)Nc1c[nH]/c(=N\c2ccc(Oc3cnc(C#N)cn3)cc2)n(Cc2ccc(Cl)cc2)c1=O [Compound I-138]	0.004
CCCn1c(=O)cc(Nc2ccc(Oc3cccc(C#N)n3)c(C)n2)n(Cc2ccc(Cl)cc2)c1=O [Compound I-187]	0.004
CCc1oc2ccc(Nc3ncc(C(=O)NC4CCOCC4)c(=O)n3Cc3ccc(Cl)cc3)cc2c1C [Compound I-019, 1-(4-chlorobenzyl)-2-(2-ethyl-3-methylbenzofuran-5-ylamino)-5-(tetrahydro-2H-pyran-4-ylcarbamoyl)pyrimidin-6(1H)-one]	0.135
CCC(=O)Nc1c[nH]/c(=N\c2ccc(Oc3ccnc(C(=O)OC)c3)cc2)n(Cc2ccc(Cl)cn2)c1=O [Compound I-287]	0.356
O=C(O)c1c[nH]/c(=N\c2ccc(Oc3cccc(F)n3)cc2)n(Cc2ccc(Cl)cc2)c1=O [Compound I-029]	0.236
O=C(O)c1c[nH]/c(=N\c2ccc(Oc3ncccc3F)cc2)n(Cc2ccc(Cl)cc2)c1=O [Compound I-108]	0.44
CCC(=O)Nc1c[nH]/c(=N\c2ccc(Oc3ccc(C(=O)O)nc3)cc2)n(Cc2ccc(Cl)cc2)c1=O [Compound I-092]	0.019
CCOC(=O)c1cnc(Nc2ccc(Oc3cccc(C(=O)OC)n3)cc2)n(Cc2ccc(Cl)cc2)c1=O [Compound I-051]	0.027
O=C(Nc1c[nH]/c(=N\c2ccc(Oc3ccon3)cc2)n(Cc2ccc(Cl)cc2)c1=O)c1ccccn1 [Compound I-254]	0.868
N#Cc1ccc(Oc2ccc(Nc3nc(=O)c(C(=O)NC4CCOCC4)cn3Cc3ccc(Cl)cc3)cc2)nc1 [Compound I-228]	0.01
